One block for each compound: values may come before it.
Experiments:
CryoR1 [1] = biological target: T1, CryoR1 (Cryobacterium levicorallinum, UniProt A0A1I3DJQ0); assay: cryo-EM structure (light-accumulated M2 state), […] A; assay type: binding; settings: covalent deprotonated Schiff base (K241); photoproduct formed in situ from all-trans-retinal; pH 10.5; 530/532 nm illumination
T1 construct: gene E3O11_09160
T1 sequence (A0A1I3DJQ0 3-327): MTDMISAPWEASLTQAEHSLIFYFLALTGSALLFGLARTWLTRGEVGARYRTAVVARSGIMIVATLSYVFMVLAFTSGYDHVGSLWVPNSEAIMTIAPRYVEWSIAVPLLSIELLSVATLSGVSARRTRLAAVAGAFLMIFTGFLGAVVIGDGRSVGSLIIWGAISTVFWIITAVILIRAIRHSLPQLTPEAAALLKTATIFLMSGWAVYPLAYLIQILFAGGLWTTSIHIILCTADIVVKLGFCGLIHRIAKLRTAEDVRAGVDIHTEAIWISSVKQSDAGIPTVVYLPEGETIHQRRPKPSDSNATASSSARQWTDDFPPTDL

CryoR4 = biological target: T2, CryoR4 (Subtercola vilae, UniProt A0A4T2CD69); assay: UV-Vis absorption and flash photolysis of purified holoprotein; assay type: binding; settings: covalent Schiff base; detergent; pH 8.0
T2 construct: gene D4765_01930
T2 sequence (A0A4T2CD69 1-317): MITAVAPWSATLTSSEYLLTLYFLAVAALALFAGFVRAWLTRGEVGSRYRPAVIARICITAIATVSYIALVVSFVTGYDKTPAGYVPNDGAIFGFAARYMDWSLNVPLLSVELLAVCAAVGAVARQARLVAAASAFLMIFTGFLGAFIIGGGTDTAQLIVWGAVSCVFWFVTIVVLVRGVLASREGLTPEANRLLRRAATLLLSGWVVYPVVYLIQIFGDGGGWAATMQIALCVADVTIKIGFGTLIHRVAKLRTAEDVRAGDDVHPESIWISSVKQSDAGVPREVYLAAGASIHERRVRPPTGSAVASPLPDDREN

CryoR1_1–263 = biological target: T3, CryoR1_1–263 (Cryobacterium levicorallinum, UniProt A0A1I3DJQ0); assay: as above; assay type: binding; settings: covalent Schiff base; detergent; pH 8.0
T3 construct: gene E3O11_09160
T3 sequence (A0A1I3DJQ0 3-265): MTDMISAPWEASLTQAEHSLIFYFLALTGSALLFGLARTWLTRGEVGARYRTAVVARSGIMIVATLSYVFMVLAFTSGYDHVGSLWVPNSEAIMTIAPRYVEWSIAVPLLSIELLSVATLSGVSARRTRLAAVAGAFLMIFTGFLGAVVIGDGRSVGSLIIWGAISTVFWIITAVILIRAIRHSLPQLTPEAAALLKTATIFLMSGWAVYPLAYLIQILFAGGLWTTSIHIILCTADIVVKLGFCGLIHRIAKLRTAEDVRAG

CryoR3 = biological target: T4, CryoR3 (Cryobacterium frigoriphilum, UniProt A0A4R8ZY77); assay: as above; assay type: binding; settings: covalent Schiff base; detergent; pH 8.0
T4 construct: gene E3T55_12175
T4 sequence (A0A4R8ZY77 42-365): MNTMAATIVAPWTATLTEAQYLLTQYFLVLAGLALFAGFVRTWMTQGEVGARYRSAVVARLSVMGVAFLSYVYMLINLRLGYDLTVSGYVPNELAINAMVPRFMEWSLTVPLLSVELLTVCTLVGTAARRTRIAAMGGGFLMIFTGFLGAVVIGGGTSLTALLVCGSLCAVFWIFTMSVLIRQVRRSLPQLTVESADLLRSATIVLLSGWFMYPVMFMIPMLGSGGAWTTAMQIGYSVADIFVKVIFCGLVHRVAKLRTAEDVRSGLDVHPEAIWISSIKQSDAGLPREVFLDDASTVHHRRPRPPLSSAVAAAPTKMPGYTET

CryoR5 = biological target: T5, CryoR5 (Subtercola boreus, UniProt A0A3E0VLV3); assay: as above; assay type: binding; settings: covalent Schiff base; detergent; pH 8.0
T5 construct: gene B7R54_12135
T5 sequence (A0A3E0VLV3 1-318): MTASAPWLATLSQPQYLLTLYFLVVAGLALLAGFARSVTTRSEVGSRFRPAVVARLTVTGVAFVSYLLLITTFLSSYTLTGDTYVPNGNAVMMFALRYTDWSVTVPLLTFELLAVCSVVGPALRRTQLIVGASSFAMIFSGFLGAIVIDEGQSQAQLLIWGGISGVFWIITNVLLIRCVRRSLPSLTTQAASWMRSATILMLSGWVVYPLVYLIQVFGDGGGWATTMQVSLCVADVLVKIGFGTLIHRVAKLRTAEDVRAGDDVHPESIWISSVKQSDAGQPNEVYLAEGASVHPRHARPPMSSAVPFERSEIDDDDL

CryoR1 [2] = biological target: T6, CryoR1 (Cryobacterium levicorallinum, UniProt A0A1I3DJQ0, R59T); assay: as above; assay type: binding; settings: covalent Schiff base (K241); detergent; pH 8.0 and 10.5
T6 construct: gene E3O11_09160

CryoR1 [3] = biological target: T1, CryoR1; assay: cryo-EM structure (ground state); assay type: binding; settings: covalent Schiff base (K241); pH 4.3, 8.0 and 10.5; detergent micelles or nanodisc
[4] = biological target: CryoRhodopsin 1 (CryoR1) from Cryobacterium levicorallinum, wild type (Cryobacterium levicorallinum); assay: cryo-EM structure
[5] = biological target: CryoRhodopsin 1 (CryoR1) from Cryobacterium levicorallinum, wild type (Cryobacterium levicorallinum); assay: SEC
[6] = biological target: CryoRhodopsin 1 (CryoR1) from Cryobacterium levicorallinum, wild type (Cryobacterium levicorallinum); assay: cryo-EM structure; remark: listed apart in the source
[7] = biological target: CryoRhodopsin 2 (CryoR2) from Subtercola sp. AK-R2A1-2 (Subtercola sp. AK-R2A1-2); assay: cryo-EM structure
[8] = biological target: CryoRhodopsin 2 (CryoR2) from Subtercola sp. AK-R2A1-2 (Subtercola sp. AK-R2A1-2); assay: crystal structure

T6 sequence (A0A1I3DJQ0 entry or part of it R59T): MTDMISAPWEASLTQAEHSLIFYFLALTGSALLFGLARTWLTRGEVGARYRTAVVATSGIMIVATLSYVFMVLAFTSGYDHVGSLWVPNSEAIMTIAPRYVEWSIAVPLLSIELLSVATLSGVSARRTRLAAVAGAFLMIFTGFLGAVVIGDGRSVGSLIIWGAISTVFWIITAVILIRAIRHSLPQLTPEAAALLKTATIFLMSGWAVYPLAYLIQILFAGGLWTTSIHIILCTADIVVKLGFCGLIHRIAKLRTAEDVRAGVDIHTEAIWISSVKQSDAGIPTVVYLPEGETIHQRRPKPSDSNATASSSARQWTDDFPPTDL

Compound: CC1=C(/C=C/C(C)=C/C=C/C(C)=C\C=O)C(C)(C)CCC1 [13-cis retinal]
- cryo-EM structure (light-accumulated M2 state), 2.3 A (CryoR1 [1]): strongly suggests the 13-cis conformation of the cofactor in the M2 state

Compound: CC1=C(/C=C/C(C)=C/C=C/C(C)=C/C=O)C(C)(C)CCC1 [all-trans-retinal]
- UV-Vis absorption and flash photolysis of purified holoprotein (CryoR4): CryoR1-5 differ in their UV–visible (Vis) absorption spectra
- UV-Vis absorption and flash photolysis of purified holoprotein (CryoR1_1–263): spectral properties of the truncated variant of CryoR1
- UV-Vis absorption and flash photolysis of purified holoprotein (CryoR3): CryoR1-5 differ in their UV–visible (Vis) absorption spectra
- UV-Vis absorption and flash photolysis of purified holoprotein (CryoR5): CryoR1-5 differ in their UV–visible (Vis) absorption spectra
- UV-Vis absorption and flash photolysis of purified holoprotein (CryoR1 [2]): we studied the spectroscopic properties of the R57T mutant of CryoR1
- cryo-EM structure (ground state) (CryoR1 [3]): presence of a single state, which we assigned to the ground state

- stoichiometry N [4]: 5
- stoichiometry N [5]: 5
- stoichiometry N [6]: 5
Compound: CryoRhodopsin 1 (CryoR1) from Cryobacterium levicorallinum, wild type (natural protein)

- stoichiometry N [7]: 5
- stoichiometry N [8]: 5
Compound: CryoRhodopsin 2 (CryoR2) from Subtercola sp. AK-R2A1-2 (natural protein)
